Laboratory results: article PMC3726061 (Journal of pharmaceutical and biomedical analysis, 2012)
Structures can show the parent of a compound that is named as a salt. Where two headings read alike, the source gives them in different places.

Key:
σ1 [1] = conditions: read-out: Ki at σ1 (nM) Literature, footnote not given, cited from earlier work
σ2 receptors [2] = molecular target: T1, σ2 receptors (Rattus norvegicus, UniProt Q5U3Y7); assay: σ2 competition binding, [3H]DTG with
T1 sequence (Q5U3Y7 1-176): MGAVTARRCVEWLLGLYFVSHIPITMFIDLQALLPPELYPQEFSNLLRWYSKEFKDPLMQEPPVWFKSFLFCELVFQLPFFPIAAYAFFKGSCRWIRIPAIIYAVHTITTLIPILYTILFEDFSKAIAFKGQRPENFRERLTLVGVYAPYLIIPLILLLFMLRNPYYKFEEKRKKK

σ2 receptors [3] = molecular target: T1, σ2 receptors; assay: σ2 competition binding, [3H]DTG with; remark: listed apart in the source
σ1 [4] = conditions: cited from earlier work
σ1 receptors [5] = molecular target: T2, σ1 receptors (Rattus norvegicus, UniProt Q9R0C9); assay: σ1 competition binding, [3H]
T2 sequence (Q9R0C9 whole entry): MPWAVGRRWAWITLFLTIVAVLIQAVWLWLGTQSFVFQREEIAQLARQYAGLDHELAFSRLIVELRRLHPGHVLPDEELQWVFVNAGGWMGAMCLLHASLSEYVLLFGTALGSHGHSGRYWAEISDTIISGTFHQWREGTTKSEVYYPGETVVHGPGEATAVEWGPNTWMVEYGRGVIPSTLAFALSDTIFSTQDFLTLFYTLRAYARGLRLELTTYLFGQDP

σ1 receptors [6] = molecular target: T2, σ1 receptors; assay: biochemical
σ2 [7] = conditions: read-out: Ki at σ2 (nM) Literature (reported value is IC50); Guinea-pig brain; ref Chaki, 1994; cited from earlier work
σ2 [8] = conditions: read-out: Ki at σ2 (nM) Literature, footnote not given, cited from earlier work
σ1 receptors [9] = molecular target: T2, σ1 receptors; conditions: read-out: Ki at σ1 (nM) Experimental Brain/Brandel; rat brain P2, 5 nM [3H](+)-pentazocine, cell harvester
σ1 [10] = conditions: read-out: Ki at σ1 (nM) Literature, cited from earlier work
σ2 [11] = conditions: read-out: Ki at σ2 (nM) Literature, cited from earlier work
[12] = read-out: Ki at σ2 (nM) Experimental Brain/Brandel, rat brain P2, 3 nM [3H]DTG with 300 nM (+)-pentazocine, cell harvester
[13] = Rat brain P2 with 5 nM [3H](+)-pentazocine, ref Bowen, 1993
[14] = Rat brain P2, 3 nM [3H]DTG with 1 μM dextrallorphan, ref Bowen, 1993

In the case of `C[C@@H]1CN(CCCn2c3ccccc3c3ccccc32)C[C@H](C)N1` [rimcazole, rimcazole dihydrochloride monohydrate], the Ki (σ1 [1]; ref g) is listed as 867 ± 185 nM, the Ki (σ2 receptors [2]) is listed as 1570 ± 154 nM and the Ki (σ2 receptors [3]) is listed as 719 ± 72 nM.

For `CCCN(CCC)CCc1ccc(OC)c(OCCc2ccccc2)c1` [NE100, 4-methoxy-3-(2-phenylethoxy)-N,N-dipropylbenzeneethanamine hydrochloride], the Ki (σ2 receptors [2]) is given as 95.5 ± 1 nM, the Ki (σ2 receptors [3]) is given as 36.2 ± 1.1 nM and the IC50 (σ1 [4]; read-out: Ki at σ1 (nM) Literature (reported value is IC50), Guinea-pig brain, ref Chaki, 1994) is given as 1.54 ± 0.26 nM. For the same compound, the Ki (σ1 receptors [5]) was 2 ± 0.5 nM, the Ki (σ1 receptors [6]) was 2.8 ± 0.5 nM and the IC50 (σ2 [7]) was 84.6 ± 32.9 nM.

In the case of `CCCc1ccc2c(c1)sc(=O)n2CCN1CCCCCC1` [SN56, 3-(2-(azepan-l-yl)ethyl)-6-propylbenzo[d]thiazol-2(3H)-one], the Ki (σ1 [1]; ref h) is listed as 0.56 nM, the Ki (σ2 receptors [2]; [12]) is listed as 627 ± 115 nM and the Ki (σ1 receptors [5]; read-out: Ki (nM) σ1, Table 2, 96-well filtration method, rat liver P2, 5 nM [3H](+)-pentazocine) is listed as 1.6 ± 0.1 nM. For the same compound, the “Ki σ2/Ki σ1” value (σ1 receptors [5]; selectivity ratio for σ1 versus σ2, 96-well method) was 168, the Ki (σ2 [8]; ref h) was greater than 1000 nM and the Ki (σ1 receptors [9]) was 1.7 ± 0.1 nM.

For `COc1ccc2c(c1)[C@]13CCCC[C@@H]1[C@H](C2)N(C)CC3` [dextromethorphan, dextromethorphan hydrobromide], the Ki (σ1 [1]; ref g) is listed as 652 ± 33 nM, the Ki (σ2 receptors [2]) is listed as greater than 10000 nM and the Ki (σ2 receptors [3]) is listed as greater than 10000 nM. For the same compound, the Ki (σ1 receptors [5]) was 214 ± 15 nM and the Ki (σ1 receptors [6]) was 403 ± 22 nM.

For `COCCCC/C(=N\OCCN)c1ccc(C(F)(F)F)cc1` [fluvoxamine, fluvoxamine maleate], the Ki (σ1 [1]; ref e) is listed as 36 nM and the Ki (σ2 [8]; ref e) is listed as 8440 nM.

For `CC(C)=CCN1CCC2(C)c3cc(O)ccc3CC1C2C` (single isomer, unassigned; (-)) [(−)-pentazocine], the Ki (σ2 receptors [2]; [12]) is given as 108 ± 4.4 nM, the Ki (σ1 [10]; [13]) is given as […] and the Ki (σ2 [11]; [14]) is given as 108 ± 6 nM.

In the case of `CC(C)=CCN1CC[C@]2(C)c3cc(O)ccc3C[C@H]1[C@H]2C` [(+)-pentazocine, (+)-Pentazocine], the Ki (σ2 receptors [2]) is given as 1410 ± 207 nM, the Ki (σ1 [10]; [13]) is given as […] and the Ki (σ2 receptors [3]) is given as 1070 ± 94 nM. For the same compound, the Ki (σ2 [11]; [14]) was 1360 ± 134 nM.

In the case of `C=CCN1CCC2(C)c3cc(O)ccc3CC1C2C` (single isomer, unassigned; (+)) [(+)-SKF10, 047, (+)-N-allylnormetazocine hydrochloride], the Ki (σ1 [10]; [13]) is listed as 28.7 ± 2.8 nM, the Ki (σ2 [11]; [14]) is listed as 33700 nM and the Ki (σ1 receptors [9]) is listed as 287 ± 36 nM.

In the case of `c1ccc(CCN2CCCCC2)cc1` [AC927, N-phenethylpiperidine oxalate], the Ki (σ2 receptors [2]; [12]) is listed as 384 ± 34 nM, the Ki (σ1 [10]; Rat brain P2 with 3 nM [3H](+)-pentazocine, ref Matsumoto, 2008) is listed as 30 ± 2 nM and the Ki (σ2 [11]; Rat brain P2, 3 nM [3H]DTG with 300 nM (+)-pentazocine, ref Matsumoto, 2008) is listed as 138 ± 18 nM. The Ki (σ1 receptors [9]) was 61.2 ± 5.6 nM.

For `CC(=O)[C@H]1CC[C@H]2[C@@H]3CCC4=CC(=O)CC[C@]4(C)[C@H]3CC[C@]12C` [progesterone], the Ki (σ1 [1]; ref f) is given as 338 ± 8 nM, the Ki (σ2 receptors [2]) is given as greater than 10000 nM and the Ki (σ2 receptors [3]) is given as greater than 10000 nM. The Ki (σ1 receptors [5]) was 99.7 ± 3.1 nM and the Ki (σ1 receptors [6]) was 234 ± 4.4 nM.

For `CN1CCN(CCc2ccc(Cl)c(Cl)c2)CC1` [BD1063, 1-[2-(3,4-dichlorophenyl)ethyl]-4-methylpiperazine dihydrochloride], the Ki (σ1 [4]; read-out: Ki at σ1 (nM) Literature, Guinea-pig brain P2 with 3 nM [3H](+)-pentazocine, ref Matsumoto, 1995) is listed as 9.15 ± 1.28 nM, the Ki (σ1 receptors [5]) is listed as 33.4 ± 4.1 nM and the Ki (σ1 receptors [6]) is listed as 15 ± 2.1 nM.
